From patent US20130245026A1, “TREATMENT OF CANCER WITH TOR KINASE INHIBITORS” (SIGNAL PHARMACEUTICALS, LLC, priority 2012, published 2013)
Where two headings read alike, the source gives them in different places.

What was measured:
[1] = tested on: A253; assay: Growth inhibition assay for head and neck (HN) cancer cell lines; type: cell-based; conditions: Homo sapiens, 72 hours, Cell Titer-Glo
Protocol: (§1) Growth Inhibition Assay for Head and Neck (HN) Cancer Cell Lines.
(§2) A serial titration was performed to produce a working concentration range of 1.5 μM to 10 mM. Aliquots to produce final concentrations of 1.5 nM to 10 μM were spotted via an acoustic dispenser (EDC ATS-100) into an empty 384-well plate. […] The DMSO concentration was kept constant for a final assay concentration of 0.1% DMSO. Plates were replicated for use with different cell lines and testing periods. After compound plate replication, all plates were sealed (Agilent ThermoLoc) and stored at −20° C. for up to 1 month. […] When ready for testing, plates were removed from the freezer, thawed, and unsealed just prior to the addition of the test cells. Prior to testing, cells were grown and expanded in culture flasks to provide sufficient amounts of starting material. Cells were then diluted to the appropriate densities and added directly to the compound-spotted 384-well plates. Cells were allowed to grow for 72 hours at 37° C./5% CO2. At the time when compound was added (t0), initial cell number was assessed via a viability assay (Cell Titer-Glo) by quantifying the level of luminescence generated by ATP present in viable cells. After 72 hours, cell viability of compound-treated cells was assessed via Cell Titer-Glo and luminescence measurement. […] A control cell line (the lung tumor cell line, A549) was included in each of the assays. The compound response against this control cell line was monitored closely to enable comparison of the data generated through the assay period. All data were normalized and presented as a percentage of the DMSO-treated cells. Results were then expressed as a GI50 value. The GI50 value corrects for the cell count at time zero.

[2] = tested on: BHY; assay: as above; type: cell-based; conditions: 72 hours, Cell Titer-Glo
Protocol: as §1, §2

[3] = tested on: CAL-27; assay: as above; type: cell-based; conditions: Homo sapiens, 72 hours, Cell Titer-Glo
Protocol: as §1, §2

[4] = tested on: CAL-33; assay: as above; type: cell-based; conditions: Homo sapiens, 72 hours, Cell Titer-Glo
Protocol: as §1, §2

[5] = tested on: Detroit562; assay: as above; type: cell-based; conditions: Homo sapiens, Detroit 562, 72 hours, Cell Titer-Glo
Protocol: as §1, §2

[6] = tested on: FADU; assay: as above; type: cell-based; conditions: Homo sapiens, 72 hours, Cell Titer-Glo
Protocol: as §1, §2

[7] = tested on: HN; assay: as above; type: cell-based; conditions: 72 h
Protocol: as §1, §2

[8] = tested on: RPMI-2650; assay: as above; type: cell-based; conditions: Homo sapiens, 72 hours, Cell Titer-Glo
Protocol: as §1, §2

[9] = tested on: SCC-15; assay: as above; type: cell-based; conditions: Homo sapiens, 72 hours, Cell Titer-Glo
Protocol: as §1, §2

[10] = tested on: SCC-25; assay: as above; type: cell-based; conditions: Homo sapiens, 72 hours, Cell Titer-Glo
Protocol: as §1, §2

[11] = tested on: SCC-9; assay: as above; type: cell-based; conditions: Homo sapiens, 72 hours, Cell Titer-Glo
Protocol: as §1, §2

[12] = tested on: A253; assay: Apoptosis assay for HN cancer cell lines (Caspase 3/7-Glo); type: cell-based; conditions: 24 hours
Protocol: (§3) Apoptosis Assay for HN Cancer Cell Lines.
(§4) Prior to testing, cells were grown and expanded in culture flasks to provide sufficient amounts of starting material. Cells were then diluted to their desired densities and added directly to compound-spotted 384-well plates. Cells were allowed to grow for 24 hours in 5% CO2 at 37° C. The apoptotic response was assessed by quantifying the activities of caspase 3 and caspase 7 (Caspase 3/7-Glo) in treated cells and control cells at the 24-hour time point. All data was normalized and represented as a value relative to the DMSO-treated cells. Results were then expressed as CalX, which is the minimum compound concentration required to double the levels of caspase 3/7 relative to those of the DMSO-treated cells during their treatment period.

[13] = tested on: BHY; assay: as above; type: cell-based; conditions: 24 hours
Protocol: as §3, §4

[14] = tested on: CAL-27; assay: as above; type: cell-based; conditions: 24 hours
Protocol: as §3, §4

[15] = tested on: CAL-33; assay: as above; type: cell-based; conditions: 24 hours
Protocol: as §3, §4

[16] = tested on: Detroit562; assay: as above; type: cell-based; conditions: 24 hours
Protocol: as §3, §4

[17] = tested on: FADU; assay: as above; type: cell-based; conditions: 24 hours
Protocol: as §3, §4

[18] = tested on: HN; assay: as above; type: cell-based; conditions: minimum concentration to double caspase 3/7 vs DMSO, 24 hours
Protocol: as §3, §4

[19] = tested on: RPMI-2650; assay: as above; type: cell-based; conditions: 24 hours
Protocol: as §3, §4

[20] = tested on: SCC-15; assay: as above; type: cell-based; conditions: 24 hours
Protocol: as §3, §4

[21] = tested on: SCC-25; assay: as above; type: cell-based; conditions: 24 hours
Protocol: as §3, §4

[22] = tested on: SCC-9; assay: as above; type: cell-based; conditions: 24 hours
Protocol: as §3, §4

[23] = tested on: patient-derived tumor cells; assay: Proliferation assay using patient tumor cells (EdU incorporation, 3D matrix); type: cell-based; conditions: Homo sapiens
Protocol: (§5) Proliferation and Apoptosis Assay Using Patient Tumor Cells.
(§6) Cryopreserved patient-derived tumor cells were resurrected from liquid nitrogen storage and conditioned on coated plates prior to drug treatment. […] The mitotic activity of the cells was assessed by measuring ethynyl […] (EdU) incorporation during S-phase. The untreated control wells received medium containing DMSO (vehicle used to dissolve each compound and EdU). […] The apoptotic activity of the cells was assessed by measuring CellEvent incorporation due to caspase 3 and 7 activation. The untreated control wells received medium containing DMSO (vehicle used to dissolve each compound and CellEvent). After conditioning, cell lines were plated on a 3D matrix in two 96-well plates. The cells were allowed to settle and form spheroid structures for 48 hours. Then, 48 hours after plating, the cells were treated with compound.
The cells were treated only on Day 1. For the last 48 hours of the treatment, EdU was added to measure the cell proliferation. At the end of the treatment, plates were fixed, permeabilized and stained for EdU uptake (proliferation marker) and DAPI (nuclear marker). Plates were imaged at 4× magnification using ImageXpress Micro (Molecular Devices, Sunnyvale, Calif.). Seven z-stacks at 5 sites per well were captured and deconvoluted to create the images for analysis. For the proliferation assay, images were analyzed using a Multi Wave Scoring Algorithm (Molecular Devices, Sunnyvale, Calif.) to quantify mean fluorescent intensities (MFI) of each well for EdU. The EdU MFI's for the treated wells were normalized to those of the untreated wells to generate the compound response curves.

[24] = tested on: patient-derived tumor cells; assay: Apoptosis assay using patient tumor cells (CellEvent, caspase 3 and 7); type: cell-based, human; conditions: concentration between 0.1-10 μM; 48 hours of treatment
Protocol: as §5, §6
The cells were treated only on Day 1. After 48 hours of compound treatment, CellEvent was added to measure the apoptotic activity in cells. […] For the Apoptosis assay, images were analyzed using a Multi Wavelength Scoring Algorithm (Molecular Devices, Sunnyvale, Calif.) to quantify mean fluorescent intensities (MFI) of each well for activated caspase 3 and 7 using CellEvent. The CellEvent mean fluorescence intensities (MFI) of treated wells and untreated controls were averaged and plotted.

[25] = corrected for cell count at time zero
[26] = Table 1, minimum concentration to double caspase 3/7 vs DMSO
[27] = minimum concentration to double caspase 3/7 vs DMSO

With `CCN1C(=O)CNc2ncc(-c3ccc(-c4nc[nH]n4)nc3C)nc21` [Compound 1, 1-ethyl-7-(2-methyl-6-(1H-1,2,4-triazol-3-yl)pyridin-3-yl)-3,4-dihydropyrazino[2,3-b]pyrazin-2(1H)-one] as the compound, how does the IC50 [1] read?
The IC50 was 378 nM.

What about the GI50 [1, 25] of the same compound?
The GI50 was 303 nM.

What about the IC50 [2] of the same compound?
The IC50 was 210 nM.

And the GI50 [2, 25]?
The GI50 was 39.5 nM.

What about the IC50 [3] of the same compound?
The IC50 was 177 nM.

And the GI50 [3, 25]?
The GI50 was 144 nM.

What about the IC50 [4] of the same compound?
Its IC50 is 69.8 nM.

And the GI50 [4, 25]?
Its GI50 is 42.7 nM.

What about the IC50 [5] of the same compound?
Its IC50 is 254 nM.

And the GI50 [5, 25]?
The GI50 was 169 nM.

And the IC50 [6]?
The IC50 was 1160 nM.

What about the GI50 [6, 25] of the same compound?
Its GI50 is 792 nM.

And the GI50 [7]?
Its GI50 is 117 nM.

And the IC50 [7]?
Its IC50 is 178 nM.

And the IC50 [8]?
The IC50 was 389 nM.

What about the GI50 [8, 25] of the same compound?
The GI50 was 219 nM.

What about the IC50 [9] of the same compound?
The IC50 was 679 nM.

What about the GI50 [9, 25] of the same compound?
Its GI50 is 56.8 nM.

And the IC50 [10]?
The IC50 was 179 nM.

What about the GI50 [10, 25] of the same compound?
Its GI50 is 127 nM.

What about the IC50 [11] of the same compound?
Its IC50 is 362 nM.

What about the GI50 [11, 25] of the same compound?
Its GI50 is 129 nM.

What about the Cal X [12, 26] of the same compound?
Its Cal X is greater than 10 µM.

What about the CalX [12, 27] of the same compound?
Its CalX is greater than 10 µM.

And the Cal X [13, 26]?
The Cal X was greater than 10 µM.

And the CalX [13, 27]?
The CalX was greater than 10 µM.

And the Cal X [14, 26]?
The Cal X was greater than 10 µM.

And the CalX [14, 27]?
Its CalX is greater than 10 µM.

What about the Cal_X ([15]; Table 1, minimum concentration to double caspase 3/7 vs DMSO, in µM) of the same compound?
Its Cal_X is 0.8764.

And the CalX [15, 27]?
Its CalX is 0.8764 µM.

And the Cal X [16, 26]?
The Cal X was greater than 10 µM.

And the CalX [16, 27]?
The CalX was greater than 10 µM.

What about the Cal X [17, 26] of the same compound?
Its Cal X is greater than 10 µM.

And the CalX [17, 27]?
Its CalX is greater than 10 µM.

And the CalX [18]?
Its CalX is greater than 10 µM.

What about the Cal X [19, 26] of the same compound?
The Cal X was greater than 10 µM.

And the CalX [19, 27]?
Its CalX is greater than 10 µM.

And the Cal X [20, 26]?
Its Cal X is greater than 10 µM.

And the CalX [20, 27]?
The CalX was greater than 10 µM.

What about the Cal X [21, 26] of the same compound?
The Cal X was greater than 10 µM.

What about the CalX [21, 27] of the same compound?
Its CalX is greater than 10 µM.

What about the Cal X [22, 26] of the same compound?
Its Cal X is greater than 10 µM.

What about the CalX [22, 27] of the same compound?
The CalX was greater than 10 µM.

What about the IC50 ([23]; Unknown, Left palate, read-out: Prolif IC50) of the same compound?
The IC50 was 547 nM.

And the IC50 ([23]; person, H&N carcinoma, Left superior segment, read-out: Prolif IC50)?
Its IC50 is 260 nM.

What about the IC50 ([23]; person, H&N carcinoma, Lung, read-out: Prolif IC50) of the same compound?
Its IC50 is 342 nM.

What about the IC50 ([23]; person, Larynx carcinoma, Left side neck, read-out: Prolif IC50) of the same compound?
Its IC50 is 103 nM.

And the IC50 ([23]; person, Squamous carcinoma H&N, Neck, read-out: Prolif IC50)?
Its IC50 is 1720 nM.

And the IC50 ([23]; person, Squamous carcinoma H&N, Right lower lobe lung, read-out: Prolif IC50)?
The IC50 was 139 nM.

And the IC50 ([23]; person, Squamous carcinoma H&N, Right nasal, read-out: Prolif IC50)?
The IC50 was 240 nM.

What about the IC50 ([23]; person, Squamous cell H&N, Cervical lymph node, read-out: Prolif IC50) of the same compound?
Its IC50 is 146 nM.

What about the IC50 ([23]; person, Squamous cell H&N, Left chest wall, read-out: Prolif IC50) of the same compound?
Its IC50 is 157 nM.

And the IC50 ([23]; person, Squamous cell H&N, Left neck lymph node, read-out: Prolif IC50)?
The IC50 was 499 nM.

What about the IC50 ([23]; person, Squamous cell H&N, Left neck, cervical, read-out: Prolif IC50) of the same compound?
Its IC50 is 429 nM.

What about the IC50 ([23]; person, Squamous cell H&N, Left tonsil, read-out: Prolif IC50) of the same compound?
The IC50 was 162 nM.

What about the IC50 ([23]; person, Squamous cell H&N, Mass, left latisimal muscle, read-out: Prolif IC50) of the same compound?
Its IC50 is 115 nM.

And the IC50 ([23]; person, Squamous cell H&N, Mass, skull base excision, read-out: Prolif IC50)?
Its IC50 is 157 nM.

And the IC50 ([23]; person, Squamous cell H&N, Pleural fluid, read-out: Prolif IC50)?
The IC50 was 536 nM.

What about the IC50 ([23]; person, Squamous cell H&N, Right lower lobe lung, read-out: Prolif IC50) of the same compound?
The IC50 was 322 nM.

And the IC50 ([23]; person, Squamous cell H&N, Right pleural biopsy, read-out: Prolif IC50)?
The IC50 was 441 nM.

What about the IC50 ([23]; person, Squamous cell tongue, Right axilliary node, read-out: Prolif IC50) of the same compound?
Its IC50 is 318 nM.

What about the IC50 ([23]; person, Tongue, Left neck mass, read-out: Prolif IC50) of the same compound?
The IC50 was 377 nM.

And the IC50 ([23]; span over all patient tumor cell samples of Table 3, read-out: inhibition of proliferation of patient tumor cells, IC50)?
The IC50 was 100 to 1800 nM.

What about the “apoptosis (activated caspase 3 and 7, CellEvent MFI)” value [24] of the same compound?
The value was “Apoptosis was observed in some patient-derived samples”.
